{"source": "patent US9856279B2", "about": "(AGIOS PHARMACEUTICALS, INC, priority 2011, dated 2018)", "data": [{"biological_target": "IDH1 R132H (Homo sapiens, UniProt O75874, R132H)", "sequence (O75874 whole entry R132H)": "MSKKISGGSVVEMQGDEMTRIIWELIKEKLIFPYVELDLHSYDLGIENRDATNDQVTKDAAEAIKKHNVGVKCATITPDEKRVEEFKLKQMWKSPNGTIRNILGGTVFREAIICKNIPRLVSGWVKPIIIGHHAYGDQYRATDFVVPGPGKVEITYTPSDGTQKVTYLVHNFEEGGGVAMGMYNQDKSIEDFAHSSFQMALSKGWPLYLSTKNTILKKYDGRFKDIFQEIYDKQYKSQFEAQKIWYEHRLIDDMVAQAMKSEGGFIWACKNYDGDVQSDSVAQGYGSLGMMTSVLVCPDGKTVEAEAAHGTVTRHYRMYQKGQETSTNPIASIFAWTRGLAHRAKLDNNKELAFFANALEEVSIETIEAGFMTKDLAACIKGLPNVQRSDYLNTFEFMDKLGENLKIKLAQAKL", "assay": "Assay for IDH1 R132H inhibitors (NADPH/aKG, resazurin detection)", "format": "biochemical", "conditions": "enzyme assay of Example 12; read-out: IDH1R132H IC50", "how_it_was_run": "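Read-out is resorufin fluorescence (Ex544/Em590) 5 min after adding a 30 μM resazurin detection mix. Before that, mutant enzyme (0.2 μg/ml in its mix) ran 50 min at room temperature with compound, 8 uM NADPH and 2 mM aKG (mix levels) in Tris pH 7.5 with NaCl, MgCl2, BSA.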", "units": {"IC50": "nM"}, "values": [{"compound": "COCCC(=O)N1CCN(c2nc(C3CC3)c(-c3ccc(F)cc3)c(COC)c2C#N)C[C@H]1C", "note": "[Compound 298, (R)-6-cyclopropyl-5-(4-fluorophenyl)-4-(methoxymethyl)-2-(4-(3-methoxypropanoyl)-3-methylpiperazin-1-yl)nicotinonitrile]", "IC50": "500 to 1000"}, {"compound": "Cc1c(C#N)c(N2CCN(C(=O)CC(F)(F)F)[C@H](C3CC3)C2)nc(C2CC2)c1-c1ccc(F)cc1", "note": "[Compound 300, (R)-6-cyclopropyl-2-(3-cyclopropyl-4-(3,3,3-trifluoropropanoyl)piperazin-1-yl)-5-(4-fluorophenyl)-4-methylnicotinonitrile]", "IC50": "500 to 1000"}, {"compound": "COCCC(=O)N1CCN(c2nc(C3CC3)c(-c3cccc(C(N)=O)c3)cc2C#N)C[C@H]1C", "note": "[Compound 305, (R)-3-(5-cyano-2-cyclopropyl-6-(4-(3-methoxypropanoyl)-3-methylpiperazin-1-yl)pyridin-3-yl)benzamide]", "IC50": "500 to 1000"}, {"compound": "COCCC(=O)N1CCN(c2nc(C3CC3)c(-c3cccc(CO)c3)cc2C#N)C[C@H]1C", "note": "[Compound 306, (R)-6-cyclopropyl-5-(3-(hydroxymethyl)phenyl)-2-(4-(3-methoxypropanoyl)-3-methylpiperazin-1-yl)nicotinonitrile]", "IC50": "500 to 1000"}, {"compound": "COCCC(=O)N1CCN(c2nc(C3CC3)c(OC(C)c3cccc(Cl)c3)cc2C#N)C[C@H]1C", "note": "(stereo partly drawn) [Compound 310, 5-(1-(3-chlorophenyl)ethoxy)-6-cyclopropyl-2-((R)-4-(3-methoxypropanoyl)-3-methylpiperazin-1-yl)nicotinonitrile]", "IC50": "500 to 1000"}, {"compound": "COCCC(=O)N1CCN(c2nc(C3CC3)c(OC(C)c3ccc(Cl)cc3)cc2C#N)C[C@H]1C", "note": "(stereo partly drawn) [Compound 311, 5-(1-(4-chlorophenyl)ethoxy)-6-cyclopropyl-2-((R)-4-(3-methoxypropanoyl)-3-methylpiperazin-1-yl)nicotinonitrile]", "IC50": "500 to 1000"}, {"compound": "COCCC(=O)N1CCN(c2nc(C3CC3)c(-c3ccc(N)nc3)cc2C#N)C[C@H]1C", "note": "[Compound 314, (R)-6′-amino-2-cyclopropyl-6-(4-(3-methoxypropanoyl)-3-methylpiperazin-1-yl)-3,3′-bipyridine-5-carbonitrile]", "IC50": "500 to 1000"}, {"compound": "COCCC(=O)N1CCN(c2nc(C3CC3)c(-c3c(OC)cccc3OC)cc2C#N)C[C@H]1C", "note": "[Compound 316, (R)-6-cyclopropyl-5-(2,6-dimethoxyphenyl)-2-(4-(3-methoxypropanoyl)-3-methylpiperazin-1-yl)nicotinonitrile]", "IC50": "500 to 1000"}, {"compound": "COCCC(=O)N1CCN(c2nc(C3CC3)c(-c3ccc4[nH]cc(C(=O)C(F)(F)F)c4c3)cc2C#N)C[C@H]1C", "note": "[Compound 317, (R)-6-cyclopropyl-2-(4-(3-methoxypropanoyl)-3-methylpiperazin-1-yl)-5-(3-(2,2,2-trifluoroacetyl)-1H-indol-5-yl)nicotinonitrile]", "IC50": "500 to 1000"}, {"compound": "COCCC(=O)N1CCN(c2nc(C3CC3)c(-c3cncc(C)c3)c(C)c2C#N)C[C@H]1C", "note": "[Compound 318]", "IC50": "< 500"}, {"compound": "COCCC(=O)N1CCN(c2nc(C3CC3)c(-c3ccc(S(C)(=O)=O)cc3)c(C)c2C#N)C[C@H]1C", "note": "[Compound 319, (R)-6-cyclopropyl-5-(4-methanesulfonyl-phenyl)-2-[4-(3-methoxy-propionyl)-3-methyl-piperazin-1-yl]-4-methyl-nicotinonitrile]", "IC50": "< 500"}, {"compound": "COCCC(=O)N1CCN(c2nc(C3CC3)c(-c3cccc(COC)c3)c(C)c2C#N)C[C@H]1C", "note": "[Compound 322, (R)-6-cyclopropyl-5-(3-methoxymethyl-phenyl)-2-[4-(3-methoxy-propionyl)-3-methyl-piperazin-1-yl]-4-methyl-nicotinonitrile]", "IC50": "< 500"}, {"compound": "COCCC(=O)N1CCN(c2nc(C3CC3)c(-c3cccc(OC)c3F)c(C)c2C#N)C[C@H]1C", "note": "[Compound 324, (R)-6-cyclopropyl-5-(2-fluoro-3-methoxy-phenyl)-2-[4-(3-methoxy-propionyl)-3-methyl-piperazin-1-yl]-4-methyl-nicotinonitrile]", "IC50": "500 to 1000"}, {"compound": "CNC(=O)c1cccc(-c2c(C3CC3)nc(N3CCN(C(=O)CCOC)[C@H](C)C3)c(C#N)c2C)c1", "note": "[Compound 327, (R)-3-{5-cyano-2-cyclopropyl-6-[4-(3-methoxy-propionyl)-3-methyl-piperazin-1-yl]-4-methyl-pyridin-3-yl}-N-methyl-benzamide]", "IC50": "500 to 1000"}, {"compound": "COCCC(=O)N1CCN(c2nc(C3CC3)c(-c3cccnc3OC)cc2C#N)C[C@H]1C", "note": "[Compound 328, (R)-2-cyclopropyl-2′-methoxy-6-[4-(3-methoxy-propionyl)-3-methyl-piperazin-1-yl]-[3,3]bipyridinyl-5-carbonitrile]", "IC50": "< 500"}, {"compound": "COCCC(=O)N1CCN(c2nc(C3CC3)c(-c3cccc(S(C)(=O)=O)c3)c(C)c2C#N)C[C@H]1C", "note": "[Compound 329, (R)-6-cyclopropyl-5-(3-methanesulfonyl-phenyl)-2-[4-(3-methoxy-propionyl)-3-methyl-piperazin-1-yl]-4-methyl-nicotinonitrile]", "IC50": "500 to 1000"}, {"compound": "CNS(=O)(=O)c1ccc(-c2c(C3CC3)nc(N3CCN(C(=O)CCOC)[C@H](C)C3)c(C#N)c2C)cc1", "note": "[Compound 331, (R)-4-{5-cyano-2-cyclopropyl-6-[4-(3-methoxy-propionyl)-3-methyl-piperazin-1-yl]-4-methyl-pyridin-3-yl}-N-methyl-benzenesulfonamide]", "IC50": "< 500"}, {"compound": "COCCC(=O)N1CCN(c2nc(C3CC3)c(-c3cccc(C(=O)N4CCCC4)c3)c(C)c2C#N)C[C@H]1C", "note": "[Compound 332, (R)-6-cyclopropyl-2-[4-(3-methoxy-propionyl)-3-methyl-piperazin-1-yl]-4-methyl-5-[3-(pyrrolidine-1-carbonyl)-phenyl]-nicotinonitrile]", "IC50": "500 to 1000"}, {"compound": "COCCC(=O)N1CCN(c2nc(C3CC3)c(-c3ccc(C(=O)N4CCCC4)cc3)c(C)c2C#N)C[C@H]1C", "note": "[Compound 333, (R)-6-cyclopropyl-2-[4-(3-methoxy-propionyl)-3-methyl-piperazin-1-yl]-4-methyl-5-[4-(pyrrolidine-1-carbonyl)-phenyl]-nicotinonitrile]", "IC50": "< 500"}, {"compound": "CCc1ccccc1-c1cc(C#N)c(N2CCN(C(=O)CCOC)[C@H](C)C2)nc1C1CC1", "note": "[Compound 334, (R)-6-cyclopropyl-5-(2-ethyl-phenyl)-2-[4-(3-methoxy-propionyl)-3-methyl-piperazin-1-yl]-nicotinonitrile]", "IC50": "500 to 1000"}, {"compound": "COCCC(=O)N1CCN(c2nc(C3CC3)c(-c3ccc(OCC4CC4)cc3)c(C)c2C#N)C[C@H]1C", "note": "[Compound 336, (R)-6-cyclopropyl-5-(4-cyclopropylmethoxy-phenyl)-2-[4-(3-methoxy-propionyl)-3-methyl-piperazin-1-yl]-4-methyl-nicotinonitrile]", "IC50": "500 to 1000"}, {"compound": "CCCOc1ccc(-c2c(C3CC3)nc(N3CCN(C(=O)CCOC)[C@H](C)C3)c(C#N)c2C)cc1", "note": "[Compound 337, (R)-6-cyclopropyl-2-[4-(3-methoxy-propionyl)-3-methyl-piperazin-1-yl]-4-methyl-5-(4-propoxy-phenyl)-nicotinonitrile]", "IC50": "500 to 1000"}, {"compound": "COCCC(=O)N1CCN(c2nc(C3CC3)c(-c3ccccc3CCOC)cc2C#N)C[C@H]1C", "note": "[Compound 338, (R)-6-cyclopropyl-5-[2-(2-methoxy-ethyl)-phenyl]-2-[4-(3-methoxy-propionyl)-3-methyl-piperazin-1-yl]-nicotinonitrile]", "IC50": "< 500"}, {"compound": "COCCC(=O)N1CCN(c2nc(C3CC3)c(Nc3cnc4ccccc4c3)cc2C#N)C[C@H]1C", "note": "[Compound 339, (R)-6-cyclopropyl-2-(4-(3-methoxypropanoyl)-3-methylpiperazin-1-yl)-5-(quinolin-3-ylamino)nicotinonitrile]", "IC50": "500 to 1000"}, {"compound": "COCCC(=O)N1CCN(c2nc(C3CC3)c(OCc3cccc(N)c3)cc2C#N)C[C@H]1C", "note": "[Compound 341]", "IC50": "< 500"}, {"compound": "COCCC(=O)N1CCN(c2nc(C3CC3)c(-c3ccccc3CO)cc2C#N)C[C@H]1C", "note": "[Compound 344, (R)-6-cyclopropyl-5-(2-hydroxymethyl-phenyl)-2-[4-(3-methoxy-propionyl)-3-methyl-piperazin-1-yl]-nicotinonitrile]", "IC50": "500 to 1000"}, {"compound": "COCCC(=O)N1CCN(c2nc(C3CC3)c(-c3ccccc3COC)c(C)c2C#N)C[C@H]1C", "note": "[Compound 348, (R)-6-cyclopropyl-5-(2-methoxymethyl-phenyl)-2-[4-(3-methoxy-propionyl)-3-methyl-piperazin-1-yl]-4-methyl-nicotinonitrile]", "IC50": "< 500"}, {"compound": "COCCC(=O)N1CCN(c2nc(C3CC3)c(-c3ccnn3C)c(C)c2C#N)C[C@H]1C", "note": "[Compound 349, (R)-6-cyclopropyl-2-[4-(3-methoxy-propionyl)-3-methyl-piperazin-1-yl]-4-methyl-5-(2-methyl-2H-pyrazol-3-yl)-nicotinonitrile]", "IC50": "500 to 1000"}, {"compound": "COCCC(=O)N1CCN(c2nc(C3CC3)c(-c3ccc(N4CCOCC4)cc3)cc2C#N)C[C@H]1C", "note": "[Compound 354, (R)-6-cyclopropyl-2-[4-(3-methoxy-propionyl)-3-methyl-piperazin-1-yl]-5-(4-morpholin-4-yl-phenyl)-nicotinonitrile]", "IC50": "500 to 1000"}, {"compound": "COCCC(=O)N1CCN(c2nc(C3CC3)c(Nc3ccc(F)cc3)cc2C#N)C[C@H]1C", "note": "[Compound 355, (R)-6-cyclopropyl-5-((4-fluorophenyl)amino)-2-(4-(3-methoxypropanoyl)-3-methylpiperazin-1-yl)nicotinonitrile]", "IC50": "500 to 1000"}, {"compound": "COCCC(=O)N1CCN(c2nc(C3CC3)c(-c3c(C)cccc3C)cc2C#N)C[C@H]1C", "note": "[Compound 357, (R)-6-cyclopropyl-5-(2,6-dimethyl-phenyl)-2-[4-(3-methoxy-propionyl)-3-methyl-piperazin-1-yl]-nicotinonitrile]", "IC50": "500 to 1000"}, {"compound": "COCCC(=O)N1CCN(c2nc(C3CC3)c(-c3cnn(Cc4ccccc4)c3)c(C)c2C#N)C[C@H]1C", "note": "[Compound 358, (R)-5-(1-benzyl-1H-pyrazol-4-yl)-6-cyclopropyl-2-[4-(3-methoxy-propionyl)-3-methyl-piperazin-1-yl]-4-methyl-nicotinonitrile]", "IC50": "< 500"}]}]}
